Source: US8524740B2, “Synthesis and anticancer activity of aryl and heteroaryl-quinolin derivatives” (Tairx, Inc., priority 2010, dated 2013)

Tests used:
[1] = test system: HL-60; test: MTT assay, HL-60 cells; format: cell-based; details: Homo sapiens
Procedure: (§1) MTT (3-(4,5-Dimethylthiazol-2-yl)-2,5-diphenyltetrazolium bromide) assays.^21,22 HL-60, HCT-116, Hep 3B, H460, Detroit 551 and HT29/FuR cells were treated with tested compounds for the indicated periods. After treatment, cells were washed once with PBS and incubated with MTT (Sigma, St. Louis, Mo., USA) for 2 h. The formazan precipitate was dissolved in 150 μL of DMSO, and the absorbance was measured with an ELISA reader at 570 nm.
(§2) HL-60, Hep 3B, H460, MES-SA, MES-SAID x5 and Detroit 551 cells were treated with vehicle or test compounds for 48 h. The cell growth rate was determined by MTT (3-(4,5-dimethyl-thiazol-2-yl)-2,5-diphenyltetrazoliun bromide) reduction assay.
as §1, with “assays.” for “assays.^21,22”, “HCT-116, A549,” for “HCT-116,”, “KB, Kb-VIN” for “H460, Detroit 551”, “DU145” for “HT29/FuR”
as §1, with “assays.” for “assays.^21,22”, “HL-60,” for “HL-60, HCT-116,”, “H460, A498, Colo205 and” for “H460,”, “551” for “551 and HT29/FuR”

[2] = test system: HCT116; test: MTT assay, HCT-116 cells; format: cell-based; details: Homo sapiens, Table 1, 48 h
Procedure: as §1
as §1, with “assays.” for “assays.^21,22”, “HCT-116, A549,” for “HCT-116,”, “KB, Kb-VIN” for “H460, Detroit 551”, “DU145” for “HT29/FuR”

[3] = test system: Hep3B; test: MTT assay, Hep 3B cells; format: cell-based; details: Homo sapiens
Procedure: as §1, §2
as §1, with “assays.” for “assays.^21,22”, “HCT-116, A549,” for “HCT-116,”, “KB, Kb-VIN” for “H460, Detroit 551”, “DU145” for “HT29/FuR”
as §1, with “assays.” for “assays.^21,22”, “HL-60,” for “HL-60, HCT-116,”, “H460, A498, Colo205 and” for “H460,”, “551” for “551 and HT29/FuR”

[4] = test system: H460; test: MTT assay, H460 cells; format: cell-based; details: Homo sapiens, NCI-H460
Procedure: as §1, §2
as §1, with “assays.” for “assays.^21,22”, “HL-60,” for “HL-60, HCT-116,”, “H460, A498, Colo205 and” for “H460,”, “551” for “551 and HT29/FuR”

[5] = test system: Detroit 551; test: MTT assay, Detroit 551 normal human cells; format: cell-based; details: Detroit 551
Procedure: as §1, §2
as §1, with “assays.” for “assays.^21,22”, “HL-60,” for “HL-60, HCT-116,”, “H460, A498, Colo205 and” for “H460,”, “551” for “551 and HT29/FuR”

[6] = test system: HT29/5FuR; test: MTT assay, HT29/5FuR cells; format: cell-based; details: Homo sapiens, HT-29, Table 1, 48 h
Procedure: as §1

[7] = test system: HL-60, HCT-116, Hep3B, H-460; test: Cytotoxicity screen (MTT) against human cancer cell lines, results in words; format: cell-based; details: comparison within sub-series or with CHM-2133
Procedure: as §1, §2

[8] = test system: MES-SA; test: MTT assay, MES-SA cells; format: cell-based; details: Homo sapiens, 48 hrs
Procedure: as §2

[9] = test system: MES-SA/Dx5; test: MTT assay, MES-SA/Dx5 cells; format: cell-based, human; details: for IC50: Homo sapiens, MES-SA/Dx5, 48 hrs; for Ratio Of SA/Dx5: IC50 MES-SA/Dx5 over IC50 MES-SA
Procedure: as §2

[10] = Table 1, 48 h, MTT, normal human cell
[11] = Homo sapiens, Table 3, B-2 series, 48 hrs
[12] = Homo sapiens, Table 2, B-1 series, 48 hrs

Row | SMILES | IC50 ([1]; Table 1, 48 h, MTT) [nM] | IC50 [2] [nM] | IC50 ([3]; Table 1, 48 h, MTT) [nM] | IC50 ([4]; Table 1, 48 h, MTT) [nM] | IC50 [6] [nM] | melting point [°C] | IC50 ([1]; Table 3, B-2 series, 48 hrs) [nM] | IC50 ([3]; Table 3, B-2 series, 48 hrs) [nM] | IC50 ([4]; Table 3, B-2 series, 48 hrs) [nM] | IC50 ([1]; Table 2, B-1 series, 48 hrs) [nM] | IC50 ([4]; Table 2, B-1 series, 48 hrs) [nM] | IC50 [5, 10] [nM] | cytotoxicity (in words) [7] | IC50 [5, 11] [nM] | IC50 ([8]; Table 3, B-2 series) [nM] | IC50 ([9]; Table 3, B-2 series) [nM] | Ratio Of SA/Dx5 ([9]; Table 3, B-2 series) | IC50 [5, 12] [nM] | IC50 ([8]; Table 2, B-1 series) [nM] | IC50 ([9]; Table 2, B-1 series) [nM] | other results
1 | O=C1CC(c2ccccc2O)=Nc2ccc(N3CCCC3)cc21 [Compound 135, 2-(2-Hydroxyphenyl)-6-pyrrolidinoquinolin-4-one] |  |  |  |  |  | 304 to 306 | 360 | 1310 | 860 |  |  |  |  | 25000 | 846 | 1000 | 1.18 |  |  |  | 
2 | COc1cc2c(cc1O)N=C(c1ccccc1F)CC2=O [Compound 43, 2-(2-Fluorophenyl)-7-hydroxy-6-methoxyquinolin-4-one] | 1300 | 5800 | 5300 | 4400 | 290 | 277 to 279 |  |  |  |  |  | 29700 | greater cytotoxicity |  |  |  |  |  |  |  | 
3 | COc1ccccc1C1=Nc2ccc(N3CCOCC3)cc2C(=O)C1 [Compound 130, 2-(2-Methoxyphenyl)-6-morpholinoquinolin-4-one] |  |  |  |  |  | 262 to 264 |  |  |  | 2480 | 7360 |  |  |  |  |  |  | > 20000 | 2500 | 9710 | Ratio Of SA/Dx5 ([9]; Table 2, B-1 series): 3.88
4 | COc1cc2c(cc1O)N=C(c1cccc(F)c1)CC2=O [Compound 44, 2-(3-Fluorophenyl)-7-hydroxy-6-methoxyquinolin-4-one] | 900 | 1100 | 5300 | 4800 | 300 | 326 to 328 |  |  |  |  |  | 10000 | greater cytotoxicity |  |  |  |  |  |  |  | 
5 | O=C1CC(c2cccc3c2OCO3)=Nc2ccc(N3CCCC3)cc21 [Compound 125, 2-(Benzo[d][1,3]-dioxol-4-yl)-6-pyrrolidinoquinolin-4-one] |  |  |  |  |  | 330 to 332 | 80 | 200 | 200 |  |  |  |  | > 2500 | 100 | 183 | 1.83 |  |  |  | 
6 | O=C1CC(c2cccc(O)c2)=Nc2ccc(N3CCCC3)cc21 [Compound 138, 2-(3-Hydroxyphenyl)-6-pyrrolidinoquinolin-4-one] |  |  |  |  |  | 364 to 367 | 9 | 280 | 400 |  |  |  |  | 1390 | 734 | 320 | 0.23 |  |  |  | 
7 | COc1ccc(OC)c(C2=Nc3ccc(N4CCOCC4)cc3C(=O)C2)c1 [Compound 128, 2-(2,5-Dimethoxyphenyl)-6-morpholinoquinolin-4-one] |  |  |  |  |  |  |  |  |  | 1200 | 3470 |  |  |  |  |  |  | 16600 | 2030 | 8200 | IC50 ([3]; Table 2, B-1 series, 48 hrs): 3110 nM; Ratio Of SA/Dx5 ([9]; Table 2, B-1 series): 4.04
8 | COc1ccc2c(c1OC)C(=O)CC(c1ccc(F)cc1)=N2 [Compound 18, 2-(4-Fluorophenyl)-5,6-dimethoxyquinolin-4-one] | 2000 | > 20000 | > 20000 | > 20000 | 2020 | 227 to 229 |  |  |  |  |  | > 20000 | weaker |  |  |  |  |  |  |  | 
9 | COc1cccc(C2=Nc3ccc(N4CCOCC4)cc3C(=O)C2)c1OC [Compound 126, 2-(2,3-Dimethoxyphenyl)-6-morpholinoquinolin-4-one] |  |  |  |  |  | 235 to 236 |  |  |  | 5220 | 17400 |  |  |  |  |  |  | > 50000 | 5000 | 17500 | IC50 ([3]; Table 2, B-1 series, 48 hrs): 9800 nM; Ratio Of SA/Dx5 ([9]; Table 2, B-1 series): 3.49
10 | O=C1CC(c2cccc3c2OCO3)=Nc2ccc(N3CCOCC3)cc21 [Compound 124, 2-(Benzo[d][1,3]-dioxol-4-yl)-6-morpholinoquinolin-4-one] |  |  |  |  |  | 350 to 352 |  |  |  | 720 | 2130 |  |  |  |  |  |  | > 2500 | 2350 | 2100 | IC50 ([3]; Table 2, B-1 series, 48 hrs): 1500 nM; Ratio Of SA/Dx5 ([9]; Table 2, B-1 series): 0.89
11 | COc1cc2c(cc1O)N=C(c1ccc(F)cc1)CC2=O [Compound 45, 2-(4-Fluorophenyl)-7-hydroxy-6-methoxyquinolin-4-one] | 38200 | > 100000 | > 100000 | > 100000 | 370 | 352 to 354 |  |  |  |  |  | > 100000 | weaker |  |  |  |  |  |  |  | 

Second part, led by results:

Row | IC50 ([1]; Table 1, 48 h, MTT) [nM] | IC50 [2] [nM] | IC50 ([3]; Table 1, 48 h, MTT) [nM] | IC50 ([4]; Table 1, 48 h, MTT) [nM] | IC50 [6] [nM] | melting point [°C] | IC50 ([1]; Table 3, B-2 series, 48 hrs) [nM] | IC50 ([3]; Table 3, B-2 series, 48 hrs) [nM] | IC50 ([4]; Table 3, B-2 series, 48 hrs) [nM] | IC50 ([1]; Table 2, B-1 series, 48 hrs) [nM] | IC50 ([4]; Table 2, B-1 series, 48 hrs) [nM] | SMILES | IC50 [5, 10] [nM] | cytotoxicity (in words) [7] | IC50 [5, 11] [nM] | IC50 ([8]; Table 3, B-2 series) [nM] | IC50 ([9]; Table 3, B-2 series) [nM] | Ratio Of SA/Dx5 ([9]; Table 3, B-2 series) | IC50 [5, 12] [nM] | IC50 ([8]; Table 2, B-1 series) [nM] | IC50 ([9]; Table 2, B-1 series) [nM] | other results
12 | 1000 | 2100 | 1900 | 4500 | 690 | 282 to 283 |  |  |  |  |  | O=C1CC(c2ccccc2F)=Nc2ccc3c(c21)OCO3 [Compound 19, 2-(2-Fluorophenyl)-5,6-methylenedioxyquinolin-4-one] | > 10000 | significant cytotoxicity |  |  |  |  |  |  |  | 
13 |  |  |  |  |  | 357 to 360 |  |  |  | 230 | 24800 | O=C1CC(c2cccc(O)c2)=Nc2ccc(N3CCOCC3)cc21 [Compound 137, 2-(3-Hydroxyphenyl)-6-morpholinoquinolin-4-one] |  |  |  |  |  |  | 10000 | 3610 | 7300 | IC50 ([3]; Table 2, B-1 series, 48 hrs): 11500 nM; Ratio Of SA/Dx5 ([9]; Table 2, B-1 series): 2.02
14 |  |  |  |  |  |  |  |  |  | 2100 | 8300 | O=C1CC(c2ccccc2O)=Nc2ccc(N3CCOCC3)cc21 [Compound 134, 2-(2-Hydroxyphenyl)-6-morpholinoquinolin-4-one] |  |  |  |  |  |  | > 100000 | 2380 | 10400 | IC50 ([3]; Table 2, B-1 series, 48 hrs): 8780 nM; Ratio Of SA/Dx5 ([9]; Table 2, B-1 series): 4.38
15 | 1300 | 1200 | 2600 | 3500 | 1960 | 190 to 192 |  |  |  |  |  | COc1ccc2c(c1OC)C(=O)CC(c1cccc(F)c1)=N2 [Compound 17, 2-(3-Fluorophenyl)-5,6-dimethoxyquinolin-4-one] | 100000 | strongest cytotoxicity |  |  |  |  |  |  |  | 
16 | 700 | 2500 | 2400 | 3200 | 820 | 286 to 288 |  |  |  |  |  | O=C1CC(c2cccc(F)c2)=Nc2ccc3c(c21)OCO3 [Compound 20, 2-(3-Fluorophenyl)-5,6-methylenedioxyquinolin-4-one] | > 5000 | significant cytotoxicity |  |  |  |  |  |  |  | 
17 |  |  |  |  |  | 272 to 274 | 6 | 220 | 190 |  |  | COc1ccc(OC)c(C2=Nc3ccc(N4CCCC4)cc3C(=O)C2)c1 [Compound 129, 2-(2,5-Dimethoxyphenyl)-6-pyrrolidinoquinolin-4-one] |  |  | 5000 | 229 | 216 | 0.94 |  |  |  | 
18 | > 10000 | > 10000 | > 10000 | > 10000 | 530 | 286 to 288 |  |  |  |  |  | O=C1CC(c2ccc(F)cc2)=Nc2ccc3c(c21)OCO3 [Compound 21, 2-(4-Fluorophenyl)-5,6-methylenedioxyquinolin-4-one] | > 10000 | weaker |  |  |  |  |  |  |  | 
19 |  |  |  |  |  | 312 to 313 | 130 | 300 | 570 |  |  | COc1ccccc1C1=Nc2ccc(N3CCCC3)cc2C(=O)C1 [Compound 131, 2-(2-Methoxyphenyl)-6-pyrrolidinoquinolin-4-one] |  |  | > 10000 | 445 | 451 | 1.01 |  |  |  | 
20 |  |  |  |  |  |  | 1620 | 7380 | 6500 |  |  | O=C1CC(c2cc(O)ccc2O)=Nc2ccc(N3CCOCC3)cc21 [Compound 144a, 2-(2,5-dihydroxyphenyl)-6-morpholinoquinolin-4-one] |  |  | 9100 | 3690 | 25000 | 6.78 |  |  |  | 
